These results are taken from patent US20110033525A1, “Diterpene Glycosides as Natural Solubilizers” (priority 2008, published 2011).

The conditions of data set [1]: The Merck Index (1996) or Material Safety Data Sheets; cited from earlier work.
The test system of data set [2] is PC3 (human prostate) cancer cells. Put plainly: MTT cellular proliferation assay, PC3. The data set is classed as cell-based. The conditions noted are these: 72 hr. The protocol: (§1) Paclitaxel and camptothecin were purchased from Sigma Chemicals (St. Louis, Mo.). […] The solution was sonicated for 60 min at 69° C. and then placed in a shaking incubator at 25° C. for 48 hr. The solution was then centrifuged at 4,000×g, and the supernatant was filtered with a 0.2 μm nylon filter. […] The sample was labeled as TXL100. To make an aqueous solution of camptothecin, about 5 mg of camptothecin was weighed into a solution containing 70 mg/ml rubusoside. The solution was sonicated for 60 min at 69° C., and then placed in a shaking incubator at 25° C. for 48 hr. The solution was then centrifuged at 4,000×g and the supernatant was filtered with a 0.2 μm nylon filter. This aqueous solution was analyzed by HPLC and contained 10 μg/ml camptothecin in the presence of 70 mg/ml rubusoside. This sample was labeled as CPT70.
(§2) Inhibition of cellular proliferation was assessed by a MTT assay. Each well of the 96-well plate contained 10^4 cells/100 μl cell culture growth medium. The cells were seeded onto the plate and placed in a 37° C. incubator overnight. On the next day, the compound treatment was set up. A series of dilutions using phosphate buffered saline (PBS) containing 10% FBS (fetal bovine serum) with either the test compound or vehicle with cell culture growth medium was made for each well with a final volume of 200 μl. Each treatment had 8 wells in a column. Prior to the addition of the test compound, the existing medium in each of the wells was aspirated completely and carefully to avoid losing cells. A series of dilutions of the aqueous samples were made ranging from 20 μl to 0.078 μl supplemented with culture media to make a final volume of 200 μl for each well. The plate was placed in a 37° C. incubator for 72 hr. On the day of the staining, MTT solution (3 mg Thiazolyl Blue Tetrazolium Bromide/ml PBS was prepared. To each well, 25 μl MTT solution was directly added. The plate was then incubated for 90 to 120 min. Afterwards, the wells were aspirated completely and carefully. Finally, 50 μl DMSO (dimethyl sulfoxide) was added to each well. The plate was read at 650 nm on a microplate reader. Cell proliferations were calculated as % of the control using the vehicle treatment as the control.
(§3) Calculations of IC50 in molar concentrations were as follows. […] Thus, 1 μl/ml of TXL solution in the culture medium equaled 17 ng TXL/ml culture medium, which equaled 19.9 nM based on the molecular weight of 854.
(§4) CPT: The sample concentration of CPT was 10 μg/ml=10 ng/μl, and the molecular weight of camptothecin is 348. Thus, 1 μl/ml of CPT solution in the culture medium equaled 10 ng CPT/ml culture medium, which equaled 28.7 nM based on the molecular weight of 348.

Another data set in a line: physchem. To be noted: for solubility: 25 °C, thermodynamic from solid. The protocol:
Solubility test methods: A compound with low solubility was selected and weighed into multiple centrifuge tubes. Each experimental tube received a known amount of the solubilizing agent being tested. The control tubes remained only with the compound. The same volume, 1 mL, unless otherwise indicated, of deionized and distilled water was added to each tube. Alternatively, a set percentage of water solutions containing the solubilizer to be tested (e.g., 5% w/v or 10% w/v) were prepared separately. In these cases, the solubilizer-water solutions were added directly to the tubes containing the low-solubility compound. The tubes were then vortexed briefly and then sonicated for 60 min at temperature of 50° C. unless otherwise indicated. After sonication, the tubes were placed on an orbital shaker at a speed of 80 rpm in an incubator set at 25° C. for at least 24 hr. The tubes were then centrifuged at 4000 rpm for 10 min. The supernatant solution was passed through a 0.2 μm or 0.45 μm filter and analyzed for the concentration of the low-solubility compound, and sometimes the solubilizing compound, by HPLC or UV-Vis spectrophotometer.
The system was computer controlled, and the results were analyzed using Empower software. Calibrations curves were constructed using known concentrations of the compounds and were used to quantify the concentrations of the compounds dissolved in solution. A more complete description of the HPLC procedure for some of the diterpene glycosides is found in G. Chou et al., “Quantitative and fingerprint analyses of Chinese sweet tea plant (Rubus suavissimus S. Lee),” J. Agric. Food Chem., vol.
The ratio of peak areas was used to calculate the increase in water solubility in the absence or presence of solubilizers.

The nature of data set [3]: Stability of solubilizers and solubilized water solutions (heat, pH, light, storage).
The test system of data set [4] is PANC-1 (human pancreatic) cancer cells. Put plainly: MTT cellular proliferation assay, PANC-1. To be noted: 72 hr. The data set is classed as cell-based. The protocol: as §1, §2, §3, §4
The test system of data set [5] is various human cancer cell lines. The conditions noted are these: Kaczirek 2004; read-out: Reported IC50 range; cited from earlier work.
Data set [6] has as its system A549 (human lung) cancer cells. Put plainly: MTT cellular proliferation assay, A549. The data set is classed as cell-based. The conditions noted are these: 72 hr. The procedure:
as §1
Inhibition of cellular proliferation was assessed by a MTT assay. […] On the day of the staining, MTT solution (3 mg Thiazolyl Blue Tetrazolium Bromide/ml PBS was prepared. To each well, 25 μl MTT solution was directly added. The plate was then incubated for 90 to 120 min. Afterwards, the wells were aspirated completely and carefully. Finally, 50 μl DMSO (dimethyl sulfoxide) was added to each well. The plate was read at 650 nm on a microplate reader. Cell proliferations were calculated as % of the control using the vehicle treatment as the control. […]

Data set [7] relates to Staphylococcus aureus ATCC 29740 (Newbould 305). The experiment in a line: Germicidal and Detergent Sanitizer Test (modified AOAC). The data set is classed as cell-based. The protocol: (§5) Germicidal and Detergent Sanitizer Test. The following challenge organisms were grown in trypticase soy broth for 24 h at 37° C.: Staphylococcus aureus (Gram-positive) ATCC 29740 (Newbould 305), Streptococcus agalactiae (Gram-positive) ATCC 27956 (McDonald 44), Streptococcus dysgalactiae (Gram-positive) ATCC 27957, Streptococcus uberis (Gram-positive) ATCC 27958, Escherichia coli (Gram-negative) ATCC 25922, Pseudomonas aeruginosa (Gram-negative) ATCC 27853, and clinical mastitis isolates of Enterobacter aerogenes (Gram-negative) (216RF) and Klebsiella pneumoniae (Gram-negative) (A37RR) from the Louisiana State University Hill Farm Research Station dairy herd.
(§6) Bacterial cultures. Aliquots of each 24-h bacterial culture were standardized to a turbidity of a 0.5 McFarland standard, which corresponds to approximately 150×10^6 colony-forming units (cfu) per ml. Aliquots containing 0.02 ml of this culture were added to 1.98 ml aliquots of the curcumin-rubusoside solution. […] This solution was mixed thoroughly, and diluted 1:1000 in saline, and 0.1 ml was plated on duplicate Letheen Agar (Becton Dickinson, Cockeysville, Md.) plates for each microorganism tested. Resultant colonies were counted after incubation of the plates at 37° C. for 24 h.
(§7) First Experiment. The test compound was a solubilized curcumin water solution. […] The solution was kept in the dark.
(§8) Second Experiment. For the second experiment, the bacterial cultures were as described above. […] First, 100 mL of a 5% w/v rubusoside water solution was prepared. […] This solution was then autoclaved at 115° C. and 1 atmosphere pressure for 30 min. The autoclaved solution was held in an incubator at 37° C. for 72 hr, and kept in the dark. The solution was adjusted to pH 7.4 by adding appropriate amount of phosphate buffered saline powder and then filtered through a 0.45 μm Nylon filter and analyzed on HPLC.

The subject of data set [8] is Enterobacter aerogenes (A216RF). Described as above. The data set is classed as cell-based. The conditions noted are these: solution pH 6.5, 30 Seconds. The procedure:
as §5, §6, §7, §8

Data set [9] has as its system Escherichia coli ATCC 25922. The description is as above. The data set is classed as cell-based. The protocol:
as §5, §6, §7, §8

Data set [10] relates to Klebsiella pneumoniae (A37RR). The data set is described as above. The data set is classed as cell-based. The conditions noted are these: solution pH 6.5, 30 Seconds. The protocol:
as §5, §6, §7, §8

Data set [11] has as its system Pseudomonas aeruginosa ATCC 27853. The description is as above. The data set is classed as cell-based. The protocol:
as §5, §6, §7, §8

In data set [12] the test system is Streptococcus dysgalactiae ATCC 27957. The data set is described as above. The data set is classed as cell-based. The procedure:
as §5, §6, §7, §8

In data set [13] the test system is Streptococcus uberis ATCC 27958. The description is as above. The data set is classed as cell-based. To be noted: solution pH 6.5, 30 Seconds. The procedure: as §5, §6, §7, §8
Data set [14] concerns Streptococcus agalactiae ATCC 27956 (McDonald 44). Described as above. The data set is classed as cell-based. The protocol:
as §5, §6, §7, §8

For data set [15] the following is noted: in vivo; cited from earlier work.
The test system of data set [16] is MDA-M231 breast cancer cells. The conditions noted are these: current drug formulation; Nornoo 2008; read-out: Concentration to kill 50% of cells; cited from earlier work.
Another data set relates to PC3 cells. The conditions noted are these: existing formulation, Danesi 1995, Rowinsky 1990, read-out: Reported IC50 for PC3 cells, cited from earlier work.
The mark [17] stands for this setting: volume of aqueous sample per ml culture medium.
Where [18] appears, read: Homo sapiens, converted from μl/ml, read-out: IC50.

Each structure is given as a SMILES string. In brackets after ≈: the same amount, converted by molar mass. Read-outs that look alike come from different tables or passages of the source.

Turning to `CC[C@@]1(O)C(=O)OCc2c1cc1n(c2=O)Cc2cc3ccccc3nc2-1` [Camptothecin], in data set [1], the “Water solubility in words” value is “insoluble”. Also, the IC50 was 1.03 μl/ml in data set [2] (setting [17]); 29.6 nM in data set [2] (setting [18]); 1.91 μl/ml in [4] (setting [17]); 54.9 nM in [4] (setting [18]); 10 to 3500 nM in data set [5]; 4.93 μl/ml in [6] (setting [17]). In data set [6] (setting [18]), the IC50 came to 142 nM. The “Concentration dissolved in rubusoside water solution” value in the data set “physchem” (70 mg (109 mM) rubusoside) was determined as 144 µM; in “physchem” (70 mg rubusoside (70 mg/ml, 109 mM)), 50000 ng/mL. For the same compound, the solubility is 144 µg/mL (≈ 413 µM) in “physchem” (aqueous with cosolvent or surfactant or cyclodextrin, Solubility in water with solubilizer, natural solubilizer (rubusoside) 20% w/v (200 mg in 1 ml)) and 0.4 µg/mL (≈ 1.15 µM) in the data set “physchem” (water, Solubility of CPT, Table 4, rubusoside amount as in the label). The “Stability of rubusoside water solution at room temperature” value in data set [3] is “stable at room temperature for at least two weeks”.
On to `COc1cc(/C=C/C(=O)CC(=O)/C=C/c2ccc(O)c(OC)c2)ccc1O` [Curcumin], for which the Percent reduction in data set [7] (solution pH 6.5, 10 Minutes) is 26.67%; in data set [7] (solution pH 6.5, 30 Seconds) it was 39.33%; in data set [8] it was “no observed inhibition”; in data set [9] (solution pH 6.5, 10 Minutes), 98.54%; in data set [9] (solution pH 6.5, 30 Seconds), “no observed inhibition”; in [10] it was “no observed inhibition”. Besides, the Percent reduction in data set [11] (solution pH 6.5, 10 Minutes) was 99.99%; in data set [11] (solution pH 6.5, 30 Seconds), 99.99%; in [12] (solution pH 6.5, 10 Minutes), 47.92%; in data set [12] (solution pH 6.5, 30 Seconds) it was 43.75%; in data set [13], “no observed inhibition”; in data set [14] (solution pH 6.5, 10 Minutes), 99.7%. Moreover, the Percent reduction in [14] (solution pH 6.5, 30 Seconds) was found to be 91.7%.
Consider `CCCCN(CCCC)CC(O)c1cc(Cl)cc2c1-c1ccc(Cl)cc1/C2=C/c1ccc(Cl)cc1` (stereo not shown) [Lumefantrine], for which the Half-life in [15] is 72 to 140 h.
`CC(=O)O[C@H]1C(=O)[C@@]2(C)[C@H]([C@H](OC(=O)c3ccccc3)[C@]3(O)C[C@H](OC(=O)[C@H](O)[C@@H](NC(=O)c4ccccc4)c4ccccc4)C(C)=C1C3(C)C)[C@]1(OC(C)=O)CO[C@@H]1C[C@@H]2O` [Paclitaxel, reference compound]: the IC50 was 0.69 μl/ml in data set [2] (setting [17]); 13.7 nM in data set [2] (setting [18]); above 1000 nM in [16]; 31.2 nM with PC3 cells (listed as paclitaxel); 50 nM with PC3 cells; 0.24 μl/ml in data set [4] (setting [17]). Moreover, in [4] (setting [18]), the IC50 was found to be 4.9 nM. Moreover, the “Solubility in water with solubilizer” value in “physchem” is 10 µg/mL. Further, in the data set “physchem”, the Solubility increase factor result was “up to 877”. The “Concentration dissolved in rubusoside water solution” value in the data set “physchem” (20 mg rubusoside in 1 ml water) is 350 ng/mL.
